Test results published in patent US10576147B2, “Muramyl peptide derivative compound, synthesis and uses thereof” (BHARAT BIOTECH INTERNATIONAL LIMITED, priority 2015, dated 2020).

Experiments:
splenocytes = experiment: Splenocyte proliferation (MTT); format: cell-based, mice; conditions: mouse splenocytes, LPS and Con-A, 48 h
Protocol: Spleens were isolated from mice and were processed to single cell suspension. 96 well flat bottom Micro titer plates were seeded with 1×10^5 cells/well with RPMI1640 media. Cells were treated with compounds, OVA, Con A (2 μg/mL) and LPS (10 μg/mL) or medium giving a final volume of […]. Plates were incubated at 37° C. with 5% CO2 in an incubator. After 48 h of incubation […] of Triazolyl blue Tetrazolium Bromide (MTT) solution was added to each well, incubated for next 4 h. Untransformed MTT was removed from each well by aspirating the supernatant ([…]) and replaced with DMSO. The absorbance was read at 570 nm after 15 min.
Immunostimulating substances act through specific (antigen-dependent) T lymphocytes, B lymphocytes, and dendritic cells and also through non-specific mechanisms of action (antigen-independent) that involves granulocytes, macrophages, and NK cells. Being a secondary lymphoid organ, spleen contains a heterogeneous population of lymphocytes to examine the immunostimulant activity. However, proliferations of immune cells like T and B cells are the benchmark for immune potentiation. Cells were treated with or without OVA or in combination with MDP and MDP-MN. Type of immune response in all treated groups was measured with LPS and Con-A splenocyte proliferation assays depicted in FIG. 3. […] This is essential for B cell expansion.

[1] = tested on: Peripheral blood mononuclear cells (PBMCs); experiment: In-vitro pyrogen test (IL-1β, IL-6, TNF-α by ELISA); format: cell-based
Protocol: Generally, pyrogenicity of any molecule can be measured by the over production of pro-inflammatory cytokines IL-1β, IL-6, and TNFα, following an activation of monocytes in-vitro, which inturn, could be an indicative of increased reactogenicity in-vivo.
Frozen Peripheral blood mononuclear cells (PBMCs) were revived and plated (0.5×10^6 cells/ml, 100 μl) in 96 well round bottom cell culture plate. Cells were supplemented with RPMI 1640 medium (Gibco Laboratories, Grand Island, N.Y.) containing fetal bovine serum (10%), glutamine (2 mM), and pencillin-streptomycin. Cells further stimulated with LPS (10 ng/ml) or endotoxin (1 EU/ml, 0.5 EU/ml, 0.25 EU/ml, 0.125 EU/ml) or MDP-MN (10 or 100 μg/ml). Cells stimulated with LPS or endotoxin was incubated for 4 hrs where as cells stimulated with MDP derivatives of the present invention kept for incubation in humidified CO2 chamber at 37° C. for 24 hrs. After stimulation, cell culture supernatant was collected and cytokines (such as IL-1β, IL-6 or TNF-α) were measured by ELISA. Concentrations each cytokine produced by PBMCs in the presence of reference standard endotoxin at 0.5 EU/ml was measured in triplicates. Threshold levels were calculated for each cytokine, using the cytokine levels produced by the reference standard endotoxin at 0.5 EU/ml (Marina et al., Vaccine 30 (2012) 4859-4865).
To determine Interleukin 1β, Enzyme Linked Immunosorbent Assay (ELISA) was performed according to the instruction manual (ebioscience, cat#88-7010). Briefly, capture antibody (cat#14-7018-67, eBioscience) was first diluted 1:250 using coating buffer and added 100 μL to each well in 96-well microplate. Plates were incubated overnight at 2-8° C. Coated plates were then washed with wash buffer (PBST). After washing, these plates were blocked using 1× assay diluent for 1 hr at room temperature followed by washing with PBST. A series of 2 fold dilutions were made from top standard ranging from 4 to 500 pg/mL, to make the standard curve. Similarly, 4 fold dilutions (1:4, 1:16 & 1:64) of cell supernatant obtained from PBMCs stimulation with MDP-MN were prepared. Aliquot (100 μL) of diluted standards or cell supernatants were added to well in duplicates and the plate was incubated at room temperature for 2 hrs. After washing the plate, 100 μL/well of detection antibody (cat#33-7016-67) diluted in 1× Assay diluent was added and incubated at room temperature for 1 hr. Later, 100 μL/well of Avidin-HRP* diluted in 1× Assay diluent was added and incubated at room temperature for 30 minutes. Finally, after washes, 100 μL of substrate solution was added to each well and incubated at RT for 15 minutes. Reaction was stopped by the addition of 50 μL of 2N H2SO4 to each well and the plate was read at 450 nm. […]

## C[C@H](NC(=O)[C@@H](C)O[C@H]1[C@H](O)[C@@H](CO)OC(O)[C@@H]1NC(=O)[C@H](O)CO)C(=O)N[C@H](CCC(=O)O)C(N)=O (stereo partly drawn) [MDP-MN, (4R)-5-amino-4-((2S)-2-((2R)-2-(((3R,4R,5S,6R)-3-((2,3-dihydroxypropanamido))-2,5-dihydroxy-6-(hydroxymethyl)tetrahydro-2H-pyran-4-yl)oxy)propanamido)propanamido)-5-oxopentanoic acid]
splenocytes
  splenocyte proliferation: inducing the LPS mediated splenocyte proliferation
[1]; MDP-MN at both 10 & 100 μg/ml, 24 hrs, (endotoxin 0.5 EU/ml)
  IL-1β level vs threshold: within the threshold value
[1]; MDP-MN at both 10 & 100 μg/ml, 24 hrs, threshold 753 μg/ml
  TNF-α level vs threshold: within the threshold value
[1]; MDP-MN at both 10 & 100 μg/ml, 24 hrs, threshold 3110 μg/ml
  IL-6 level vs threshold: within the threshold value
[1]; in-vitro pyrogen test
  pyrogenicity: doesn't cause any pyrogenicity
